Source: publication PMC8102066 (eLife, 2021)
Several values for one entry are separate records, joined by “and”; a condition that tells them apart may be missing. Equal values may be shown once. One block for each molecule: values may come before it.

Assays:
[1] = system: SNAP-tagged mGluR2 and mGluR3 constructs; test: Surface expression measurements; assay type: cell-based, rat; conditions: construct; single measurements
Excerpt: ImageJ was used to analyze fluorescence intensity of cell clusters. […] Fluorescence intensity values for each construct were normalized to wild-type values for comparison.

mGluR2-TMD = mGluR2-TMD (Rattus norvegicus, UniProt P31421); test: SiMPull subunit counting in the presence of ligands; conditions: for % Dimerization: SNAP-mGluR2-TMD in presence of the ligand, single replicates per experiment day; for effect of ligand on dimerization (SiMPull): saturating concentration
Chain of mGluR2-TMD (P31421 558-821 limits assumed): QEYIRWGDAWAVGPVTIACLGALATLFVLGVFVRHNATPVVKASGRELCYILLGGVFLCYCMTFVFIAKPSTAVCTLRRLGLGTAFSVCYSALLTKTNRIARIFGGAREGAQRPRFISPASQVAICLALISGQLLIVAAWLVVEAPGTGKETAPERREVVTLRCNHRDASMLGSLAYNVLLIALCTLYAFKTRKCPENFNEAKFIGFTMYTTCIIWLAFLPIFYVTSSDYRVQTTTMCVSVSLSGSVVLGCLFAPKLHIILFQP

mGluR2-C121A-3xTM4 = target: T1, mGluR2-C121A-3xTM4 (Rattus norvegicus, UniProt P31421, A677S/A681F/A685G/C121A); test: as above; conditions: for % Dimerization: SNAP-mGluR2-C121A-3xTM4 in presence of the ligand, single replicates per experiment day
T1 construct: expressed in transfected cells; host or cells: HEK 293 T (detergent lysate, pulled down by anti-HA antibody)
T1 sequence (P31421 19-872 C121A/A677S/A681F/A685G): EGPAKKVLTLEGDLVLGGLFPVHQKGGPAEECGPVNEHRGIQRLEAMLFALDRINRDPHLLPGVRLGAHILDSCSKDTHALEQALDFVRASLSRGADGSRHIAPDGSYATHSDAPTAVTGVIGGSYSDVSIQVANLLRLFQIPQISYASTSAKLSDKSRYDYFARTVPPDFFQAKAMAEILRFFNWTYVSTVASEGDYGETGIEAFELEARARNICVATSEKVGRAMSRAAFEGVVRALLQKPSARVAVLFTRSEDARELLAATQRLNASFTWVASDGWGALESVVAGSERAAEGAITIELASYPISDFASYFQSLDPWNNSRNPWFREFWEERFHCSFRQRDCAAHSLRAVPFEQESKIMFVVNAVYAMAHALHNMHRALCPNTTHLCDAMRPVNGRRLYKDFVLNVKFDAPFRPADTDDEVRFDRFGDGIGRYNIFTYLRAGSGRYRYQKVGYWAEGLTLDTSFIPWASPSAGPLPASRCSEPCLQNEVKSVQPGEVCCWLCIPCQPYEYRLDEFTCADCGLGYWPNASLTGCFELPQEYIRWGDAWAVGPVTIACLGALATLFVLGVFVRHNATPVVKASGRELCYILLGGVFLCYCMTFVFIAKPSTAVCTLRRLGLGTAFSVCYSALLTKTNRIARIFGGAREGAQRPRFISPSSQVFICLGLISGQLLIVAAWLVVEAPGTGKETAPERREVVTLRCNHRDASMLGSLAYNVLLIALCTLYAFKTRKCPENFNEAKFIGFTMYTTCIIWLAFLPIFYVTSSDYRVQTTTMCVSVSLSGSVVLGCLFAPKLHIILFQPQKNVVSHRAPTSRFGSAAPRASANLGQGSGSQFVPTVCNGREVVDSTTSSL

mGluR2-TMD-3xTM4-I779A = test: as above; design: species or system rat; conditions: for % Dimerization: SNAP-mGluR2-TMD-3xTM4-I779A in presence of the ligand, single replicates per experiment day; for effect of ligand on dimerization (SiMPull): saturating concentration
mGluR3 [2] = target: mGluR3 (Rattus norvegicus, UniProt P31422, INS669ASEIGTGFPFDPHYVEVLGERMHYVDVGPRDGTPVLFLHGNPTSSYVWRNIIPHVAPTHRCIAPDLIGMGKSDKPDLGYFFDDHVRFMDAFIEALGLEEVVLVIHDWGSALGFHWAKRNPERVKGIAFMEFIRPIPTWDEWPEFARETFQAFRTTDVGRKLIIDQNVFIEGTLPMGVVRPLTEVEMDHYREPFLNPVDREPLWRFPNELPIAGEPANIVALVEEYMDWLHQSPVPKLLFWGTPGVLIPPAEAARLAKSLPNCKAVDIGPGLNLLQEDNPDLIGSEIARWLSTLEISGLE); test: Inter-TMD FRET sensor (HaloTag in ICL2), live cells;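 note: receptor HaloTag labeled with JF549 donor and JF646 acceptor (1:3), FRET taken as acceptor over summed donor plus acceptor fluorescence intensity, imaged at room temperature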
Chain of UniProt P31422 (P31422 with tags, fused parts or gaps with the stated changes): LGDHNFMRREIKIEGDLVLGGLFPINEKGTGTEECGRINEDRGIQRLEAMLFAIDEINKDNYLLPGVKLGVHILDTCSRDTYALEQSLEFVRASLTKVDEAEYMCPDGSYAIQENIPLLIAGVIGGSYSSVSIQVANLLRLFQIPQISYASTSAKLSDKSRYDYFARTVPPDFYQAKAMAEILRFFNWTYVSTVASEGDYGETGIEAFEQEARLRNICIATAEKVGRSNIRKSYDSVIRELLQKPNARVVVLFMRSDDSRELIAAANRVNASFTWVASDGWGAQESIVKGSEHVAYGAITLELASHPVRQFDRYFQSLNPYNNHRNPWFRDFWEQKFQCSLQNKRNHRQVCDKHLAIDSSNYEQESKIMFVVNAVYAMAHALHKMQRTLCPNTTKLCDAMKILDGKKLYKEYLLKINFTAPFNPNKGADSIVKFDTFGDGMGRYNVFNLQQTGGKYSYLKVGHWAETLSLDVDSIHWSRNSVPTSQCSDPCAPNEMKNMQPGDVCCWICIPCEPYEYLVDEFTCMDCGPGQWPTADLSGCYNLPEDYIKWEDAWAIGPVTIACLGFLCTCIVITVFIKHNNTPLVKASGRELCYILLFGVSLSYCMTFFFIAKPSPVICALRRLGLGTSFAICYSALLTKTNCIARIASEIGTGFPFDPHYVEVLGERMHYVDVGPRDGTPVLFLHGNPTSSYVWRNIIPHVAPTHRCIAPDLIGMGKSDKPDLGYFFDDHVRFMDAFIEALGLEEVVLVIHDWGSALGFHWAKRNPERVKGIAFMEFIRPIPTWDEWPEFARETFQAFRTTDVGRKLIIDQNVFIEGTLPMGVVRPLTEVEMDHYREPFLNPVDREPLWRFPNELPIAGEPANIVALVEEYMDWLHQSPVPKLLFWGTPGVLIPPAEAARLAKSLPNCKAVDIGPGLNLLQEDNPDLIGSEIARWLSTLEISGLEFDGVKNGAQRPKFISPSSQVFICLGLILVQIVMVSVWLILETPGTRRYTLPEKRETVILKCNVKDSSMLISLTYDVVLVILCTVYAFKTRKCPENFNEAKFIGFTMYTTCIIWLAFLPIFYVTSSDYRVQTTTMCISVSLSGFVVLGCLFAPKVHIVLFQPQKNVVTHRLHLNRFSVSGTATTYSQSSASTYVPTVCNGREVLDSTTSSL

mGluR2 [3] = target: mGluR2 (Rattus norvegicus, UniProt P31421); test: Calcium imaging (G protein chimera, GCaMP6f) in HEK 293 T cells
Chain of mGluR2 (Rattus norvegicus, UniProt P31421) (P31421 19-872): as the sequence (P31421 19-872 C121A/A677S/A681F/A685G) above, with A103C, S659A, F663A, G667A counted along it

mGluR3 [4] = target: mGluR3 (Rattus norvegicus, UniProt P31422); test: as above
Chain of mGluR3 (Rattus norvegicus, UniProt P31422) (P31422 23-879): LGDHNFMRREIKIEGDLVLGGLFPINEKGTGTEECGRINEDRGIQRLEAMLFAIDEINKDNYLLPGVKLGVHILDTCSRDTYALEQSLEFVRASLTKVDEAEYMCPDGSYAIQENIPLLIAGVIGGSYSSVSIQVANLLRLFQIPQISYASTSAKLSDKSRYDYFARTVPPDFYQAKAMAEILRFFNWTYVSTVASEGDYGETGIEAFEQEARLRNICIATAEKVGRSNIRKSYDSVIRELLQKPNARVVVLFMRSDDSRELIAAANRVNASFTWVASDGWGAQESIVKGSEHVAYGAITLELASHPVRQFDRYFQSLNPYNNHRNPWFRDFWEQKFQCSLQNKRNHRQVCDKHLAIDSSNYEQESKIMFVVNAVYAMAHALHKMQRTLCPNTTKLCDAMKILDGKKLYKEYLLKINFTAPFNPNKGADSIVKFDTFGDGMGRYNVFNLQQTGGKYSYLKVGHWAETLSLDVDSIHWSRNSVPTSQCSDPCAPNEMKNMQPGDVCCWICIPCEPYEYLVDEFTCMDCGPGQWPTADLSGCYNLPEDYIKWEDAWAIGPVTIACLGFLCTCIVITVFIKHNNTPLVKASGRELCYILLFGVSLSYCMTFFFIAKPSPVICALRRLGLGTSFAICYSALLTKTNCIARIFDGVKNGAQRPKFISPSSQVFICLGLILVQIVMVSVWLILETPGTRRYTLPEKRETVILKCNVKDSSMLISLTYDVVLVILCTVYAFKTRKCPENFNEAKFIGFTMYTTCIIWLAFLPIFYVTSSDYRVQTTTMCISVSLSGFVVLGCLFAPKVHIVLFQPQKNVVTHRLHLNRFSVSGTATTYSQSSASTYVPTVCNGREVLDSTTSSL

mGluR2 [5] = target: mGluR2 (Rattus norvegicus, UniProt P31421, INS660ASEIGTGFPFDPHYVEVLGERMHYVDVGPRDGTPVLFLHGNPTSSYVWRNIIPHVAPTHRCIAPDLIGMGKSDKPDLGYFFDDHVRFMDAFIEALGLEEVVLVIHDWGSALGFHWAKRNPERVKGIAFMEFIRPIPTWDEWPEFARETFQAFRTTDVGRKLIIDQNVFIEGTLPMGVVRPLTEVEMDHYREPFLNPVDREPLWRFPNELPIAGEPANIVALVEEYMDWLHQSPVPKLLFWGTPGVLIPPAEAARLAKSLPNCKAVDIGPGLNLLQEDNPDLIGSEIARWLSTLEISGLE); test: Inter-TMD FRET sensor (HaloTag in ICL2), live cells
Chain of UniProt P31421 (P31421 with tags, fused parts or gaps with the stated changes): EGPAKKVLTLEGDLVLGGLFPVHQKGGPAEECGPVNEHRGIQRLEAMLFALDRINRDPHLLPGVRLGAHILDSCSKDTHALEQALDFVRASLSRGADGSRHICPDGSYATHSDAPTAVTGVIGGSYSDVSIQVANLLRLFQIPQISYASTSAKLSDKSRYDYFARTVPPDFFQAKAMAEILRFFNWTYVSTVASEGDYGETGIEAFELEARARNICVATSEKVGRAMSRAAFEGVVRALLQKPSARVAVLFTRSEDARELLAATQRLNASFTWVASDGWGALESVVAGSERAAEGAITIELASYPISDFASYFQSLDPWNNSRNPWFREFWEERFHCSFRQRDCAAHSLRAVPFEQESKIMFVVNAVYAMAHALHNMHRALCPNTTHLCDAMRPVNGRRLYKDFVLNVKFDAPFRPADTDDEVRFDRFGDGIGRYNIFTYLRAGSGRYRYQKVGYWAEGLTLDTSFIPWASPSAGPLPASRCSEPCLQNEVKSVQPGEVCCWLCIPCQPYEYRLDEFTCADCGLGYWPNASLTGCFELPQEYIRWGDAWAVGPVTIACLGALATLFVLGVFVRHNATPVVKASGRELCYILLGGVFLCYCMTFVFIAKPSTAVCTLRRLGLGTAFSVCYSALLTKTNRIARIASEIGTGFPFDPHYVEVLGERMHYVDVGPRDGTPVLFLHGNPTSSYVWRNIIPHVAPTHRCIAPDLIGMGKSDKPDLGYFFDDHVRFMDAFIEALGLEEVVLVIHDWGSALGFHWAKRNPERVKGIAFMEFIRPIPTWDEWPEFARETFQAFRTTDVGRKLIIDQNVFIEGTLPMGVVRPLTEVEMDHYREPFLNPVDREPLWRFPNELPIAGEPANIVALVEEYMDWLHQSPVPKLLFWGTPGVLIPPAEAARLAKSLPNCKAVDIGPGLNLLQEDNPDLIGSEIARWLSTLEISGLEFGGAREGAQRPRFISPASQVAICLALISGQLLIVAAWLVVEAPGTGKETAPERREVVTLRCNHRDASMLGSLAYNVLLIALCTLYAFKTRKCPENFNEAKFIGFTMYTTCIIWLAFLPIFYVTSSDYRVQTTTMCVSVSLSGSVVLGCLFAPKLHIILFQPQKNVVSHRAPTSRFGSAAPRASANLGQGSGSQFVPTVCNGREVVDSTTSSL

group II mGluR = system: group II mGluR; design: method as in Hemstapat et al., 2007; conditions: ref Hemstapat et al., 2007; cited from earlier work
mGluR2-C121A-3xTM4-I779A = target: T2, mGluR2-C121A-3xTM4-I779A (Rattus norvegicus, UniProt P31421, A677S/A681F/A685G/C121A/I779A); test: SiMPull subunit counting in the presence of ligands; conditions: SNAP-mGluR2-C121A-3xTM4-I779A in presence of the ligand; single replicates per experiment day
T2 construct: expressed in transfected cells; host or cells: HEK 293 T (detergent lysate, pulled down by anti-HA antibody)
T2 sequence (P31421 19-872 C121A/A677S/A681F/A685G/I779A): as the sequence (P31421 19-872 C121A/A677S/A681F/A685G) above, with I761A counted along it

mGluR2-C121A = target: T3, mGluR2-C121A (Rattus norvegicus, UniProt P31421, C121A); test: as above; conditions: SNAP-mGluR2-C121A in presence of the ligand; single replicates per experiment day
T3 construct: expressed in transfected cells; host or cells: HEK 293 T (detergent lysate, pulled down by anti-HA antibody)
T3 sequence (P31421 19-872 C121A): as the sequence (P31421 19-872 C121A/A677S/A681F/A685G) above, with S659A, F663A, G667A counted along it

mGluR2-TMD-I779A = test: as above; design: species or system rat; conditions: for % Dimerization: SNAP-mGluR2-TMD-I779A in presence of the ligand, single replicates per experiment day
mGluR2-C121A-I779A = target: T4, mGluR2-C121A-I779A (Rattus norvegicus, UniProt P31421, C121A/I779A); test: as above; conditions: for % Dimerization: SNAP-mGluR2-C121A-I779A in presence of the ligand, single replicates per experiment day
T4 construct: expressed in transfected cells; host or cells: HEK 293 T (detergent lysate, pulled down by anti-HA antibody)
T4 sequence (P31421 19-872 C121A/I779A): as the sequence (P31421 19-872 C121A/A677S/A681F/A685G) above, with S659A, F663A, G667A, I761A counted along it

mGluR2-TMD-3xTM4 = test: as above; design: species or system rat; conditions: for % Dimerization: SNAP-mGluR2-TMD-3xTM4 in presence of the ligand, single replicates per experiment day
mGluR2-I779A = target: T5, mGluR2-I779A (Rattus norvegicus, UniProt P31421, I779A); test: Calcium imaging in HEK 293 T cells; assay type: cell-based; conditions: for Calcium response amplitude: mGluR2-I779A
T5 construct: we performed calcium imaging experiments with mutations in the full-length mGluR2 background; expressed in transfected cells; host or cells: HEK 293 T
T5 sequence (P31421 19-872 I779A): as the sequence (P31421 19-872 C121A/A677S/A681F/A685G) above, with A103C, S659A, F663A, G667A, I761A counted along it
Procedure: Approximately 30 ROIs were analyzed per movie.

mGluR2-3xTM4 = mGluR2-3xTM4 (Rattus norvegicus, UniProt P31421, A677S/A681F/A685G); test: Calcium imaging (G protein chimera, GCaMP6f) in HEK 293 T cells; conditions: for Calcium response amplitude: normalized to 1 mM glutamate, replicates
Chain of mGluR2-3xTM4 (P31421 19-872 A677S/A681F/A685G): as the sequence (P31421 19-872 C121A/A677S/A681F/A685G) above, with A103C counted along it

Molecule: SNAP-mGluR2-P778A
Surface Expression [1]: 0.58 and 0.76 and 0.68 and 0.87 and 0.59 and 1.10 and 0.91

effect of ligand on dimerization (SiMPull) (mGluR2-TMD): no sensitivity | block of glutamate-induced FRET responses (mGluR3 [2]; MNI 137 10 μM): 42.9 ± 7.4% | block of glutamate-induced FRET responses (mGluR3 [2]; MNI 137 50 μM, n = 3): 44.9 ± 8.3% | block of functional (calcium) glutamate response (mGluR2 [3]; MNI 137 10 μM): full block of functional responses | Maximum % Inhibition (mGluR2 [3]; mGluR2, Experiment: Function): 100% | block of functional (calcium) glutamate response (mGluR3 [4]; MNI 137 10 μM): full block of functional responses | Maximum % Inhibition (mGluR3 [4]; mGluR3, Experiment: Function): 100% | block of glutamate-induced FRET responses (mGluR2 [5]; MNI 137 10 μM): 32.0 ± 4.5% | Maximum % Inhibition (mGluR2 [5]; mGluR2, Experiment: FRET): 29.8% and 42.4% and 23.8% | effect of ligand on dimerization (SiMPull) (mGluR2-C121A-I779A; saturating concentration): significantly increases dimerization
Molecule: MNI 137
% Dimerization (mGluR2-TMD): 80.57% and 69.39% and 68.4% and 70.29% and 73.87% and 66.8% and 70.292% and 73.871% and 80.566% and 69.3893% | % Dimerization (mGluR2-C121A-3xTM4): 70.00% and 81.03% and 62.91% and 67.92% and 62.85% and 68.46% | % Dimerization (mGluR2-TMD-3xTM4-I779A): 46.88% and 52.99% and 50.80% and 55.60% and 41.02% and 44.69% | effect of ligand on dimerization (SiMPull) (mGluR2-TMD-3xTM4-I779A): prevented any PAM- or NAM-induced dimerization shifts | Basal FRET Response (%) (mGluR3 [2]; mGluR3-Halo-ICL2, absence of glutamate, individual measurements): 13.3% and 15.2% and 5% and 5.6% and 0% and 19.5% and 7.8% and 52% | IC50 (group II mGluR): ~10 nM | % Dimerization (mGluR2-C121A-3xTM4-I779A): 49.83% and 50.71% and 40.36% and 45.67% and 37.52% and 54.71% | % Dimerization (mGluR2-C121A): 71.52% and 91.33% and 86.77% and 100.30% and 93.63% and 83.88% | % Dimerization (mGluR2-TMD-I779A): 60.52% and 74.21% and 73.33% and 77.72% and 88.90% and 81.43% | effect of ligand on dimerization (SiMPull) (mGluR2-TMD-I779A; saturating concentration): clear increase | % Dimerization (mGluR2-C121A-I779A): 83.51% and 83.55% and 76.24% and 73.81% and 83.57% and 74.66% | % Dimerization (mGluR2-TMD-3xTM4): 39.03% and 46.76% and 55.63% and 64.38% and 47.94% and 59.01%

Calcium response amplitude (mGluR2-I779A; LY487379 100 nM): 0.00 | Calcium response amplitude (mGluR2-I779A; LY487379 3 uM): 0.21 and 0.14 | Calcium response amplitude (mGluR2-I779A; LY487379 10 uM): 0.34 and 0.27 | Calcium response amplitude (mGluR2-I779A; LY487379 100 uM): 0.49 and 0.44 | shift of LY48 EC50 compared to mGluR2 (mGluR2-I779A; calcium imaging, rightward): 12 fold | EC50 (mGluR2-I779A; read-out: LY48 EC50, calcium imaging): 5460 ± 10 nM | EC50 (mGluR2 [3]): 450 ± 100 nM | Calcium response amplitude (mGluR2 [3]; LY487379 1 nM, mGluR2): 0.00 | Calcium response amplitude (mGluR2 [3]; LY487379 1 nM, normalized to 1 mM glutamate, replicates): 0.00 | Calcium response amplitude (mGluR2 [3]; LY487379 10 nM, mGluR2): 0.00 | Calcium response amplitude (mGluR2 [3]; LY487379 10 nM, normalized to 1 mM glutamate, replicates): 0.00 | Calcium response amplitude (mGluR2 [3]; LY487379 100 nM, normalized to 1 mM glutamate, replicates): 0.09 and 0.00 and 0.07 and 0.33 | Calcium response amplitude (mGluR2 [3]; LY487379 3 uM, mGluR2): 0.70 and 0.58 and 0.72 | Calcium response amplitude (mGluR2 [3]; LY487379 3 uM, normalized to 1 mM glutamate, replicates): 0.70 and 0.58 and 0.72 | Calcium response amplitude (mGluR2 [3]; LY487379 100 uM, mGluR2): 0.76 and 0.82 and 0.73 and 0.74 | Calcium response amplitude (mGluR2 [3]; LY487379 100 uM, normalized to 1 mM glutamate, replicates): 0.76 and 0.82 and 0.73 and 0.74 | EC50 (mGluR2-3xTM4): 270 ± 60 nM | Calcium response amplitude (mGluR2-3xTM4; LY487379 1 nM): 0.00 | Calcium response amplitude (mGluR2-3xTM4; LY487379 10 nM): 0.14 and 0.16 and 0.09 and 0.00 | Calcium response amplitude (mGluR2-3xTM4; LY487379 100 nM): 0.27 and 0.19 and 0.25 | Calcium response amplitude (mGluR2-3xTM4; LY487379 1 uM): 0.80 and 0.82 (2×) and 0.66 | Calcium response amplitude (mGluR2-3xTM4; LY487379 3 uM): 0.86 and 0.89 | Calcium response amplitude (mGluR2-3xTM4; LY487379 10 uM): 0.94 and 0.93 and 0.86 | Calcium response amplitude (mGluR2-3xTM4; LY487379 100 uM): 0.97 and 0.91 and 0.99
Molecule: COc1ccccc1Oc1ccc(N(Cc2cccnc2)S(=O)(=O)CC(F)(F)F)cc1 [LY487379, N-(4-(2-methoxyphenoxy)phenyl)-N-(2,2,2-trifluoroethylsulfonyl)pyrid-3-ylmethylamine]
Calcium response amplitude (mGluR2 [3]; LY487379 1 uM, mGluR2): 0.53 and 0.49 and 0.68 and 0.50 and 0.51 and 0.46 | Calcium response amplitude (mGluR2 [3]; LY487379 1 uM, normalized to 1 mM glutamate, replicates): 0.53 and 0.49 and 0.68 and 0.50 and 0.51 and 0.46 | Calcium response amplitude (mGluR2 [3]; LY487379 10 uM, mGluR2): 0.61 and 0.56 and 0.77 and 0.92 and 0.74 and 0.69 | Calcium response amplitude (mGluR2 [3]; LY487379 10 uM, normalized to 1 mM glutamate, replicates): 0.61 and 0.56 and 0.77 and 0.92 and 0.74 and 0.69

effect of ligand on dimerization (SiMPull) (mGluR2-TMD): no sensitivity | effect of ligand on dimerization (SiMPull) (mGluR2-C121A-3xTM4; saturating concentration): significantly increases dimerization
Molecule: Cc1c(C(N)=O)nc2n1C[C@@H](COc1ccc(C(C)(C)C)cc1)O2 [TASP]
% Dimerization (mGluR2-TMD): 70.24% and 67.71% and 72.49% and 72.50% and 70.98% and 74.03% | % Dimerization (mGluR2-C121A-3xTM4): 78.37% and 85.60% and 87.01% and 85.50% and 86.03% and 88.59% | % Dimerization (mGluR2-TMD-3xTM4-I779A): 47.45% and 39.66% and 50.29% and 36.75% and 47.53% and 38.72% | effect of ligand on dimerization (SiMPull) (mGluR2-TMD-3xTM4-I779A): prevented any PAM- or NAM-induced dimerization shifts | % Dimerization (mGluR2-C121A-3xTM4-I779A): 50.00% and 40.35% and 44.84% and 41.46% and 44.90% and 44.88% | % Dimerization (mGluR2-C121A): 76.12% and 87.00% and 99.52% and 87.93% and 80.12% and 79.00% | % Dimerization (mGluR2-TMD-I779A): 52.39% and 61.74% and 61.54% and 62.46% and 33.04% and 41.52% | % Dimerization (mGluR2-C121A-I779A): 59.23% and 63.47% and 55.82% and 58.53% and 66.92% and 63.85% | % Dimerization (mGluR2-TMD-3xTM4): 69.61% and 70.23% and 79.80% and 76.57% and 71.76% and 76.09% | effect of ligand on dimerization (SiMPull) (mGluR2-TMD-3xTM4; saturating concentration): clear increase in dimerization
